Reference: patent US8999940B2 (Ipsen Pharma S.A.S., priority 2008, dated 2015)
[ ]: non-standard residue; d: D form. Tyr(3-Cl) = N[C@@H](Cc1ccc(O)c(Cl)c1)C(=O)O; Nle = CCCC[C@H](N)C(=O)O; Ac5c = NC1(C(=O)O)CCCC1; Aib = CC(C)(N)C(=O)O

How the values were obtained:
[1] = Human plasma half-life assay; type: in vitro ADME; details: 37° C., LC-MS, read-out: Human Plasma T½ (converted)
[2] = Rat plasma half-life assay; type: in vitro ADME; details: 37° C., LC-MS, read-out: Rat Plasma T½ (converted)
insulin secretion = assay: Determination of in vivo insulin secretion in normal rats; details: fasted male Sprague Dawley rats, compound iv with glucose (1 g/kg), plasma insulin up to 20 minutes post-glucose
Method: D. Determination of in vivo Insulin Secretion in Normal Rats Male Sprague Dawley rats with a body weight of approximately 275-300 g were used as experimental subjects. The day prior to the treatment, right atrial cannulae were implanted via the jugular vein under chlorohydrate. Each cannula was filled with 100 u/ml heparin saline and tied. […] The day of the experiment, aliquots of compound were thawed, brought to room temperature and vortexed thoroughly. […] At time 0, a 500 μl blood sample was withdrawn through the cannula. Next, either the vehicle or the appropriate dose of the compound was injected into the cannula and pushed in with the glucose (1 g/kg) or vehicle solution. Finally, 500 μl of volume of heparinized saline (10 u/ml) was used to push in the remaining glucose through the cannula. […] The plasma was collected from the blood samples by centrifugation, and stored at −20° C. until assay for insulin content.

[3] = molecular target: T1, human recombinant GIP receptor (Homo sapiens, UniProt P48546); assay: In vitro hGIP receptor binding assay
T1 construct: expressed in transfected cells; host or cells: CHO-K1 clonal cells (membrane preparation)
T1 sequence (P48546 22-466): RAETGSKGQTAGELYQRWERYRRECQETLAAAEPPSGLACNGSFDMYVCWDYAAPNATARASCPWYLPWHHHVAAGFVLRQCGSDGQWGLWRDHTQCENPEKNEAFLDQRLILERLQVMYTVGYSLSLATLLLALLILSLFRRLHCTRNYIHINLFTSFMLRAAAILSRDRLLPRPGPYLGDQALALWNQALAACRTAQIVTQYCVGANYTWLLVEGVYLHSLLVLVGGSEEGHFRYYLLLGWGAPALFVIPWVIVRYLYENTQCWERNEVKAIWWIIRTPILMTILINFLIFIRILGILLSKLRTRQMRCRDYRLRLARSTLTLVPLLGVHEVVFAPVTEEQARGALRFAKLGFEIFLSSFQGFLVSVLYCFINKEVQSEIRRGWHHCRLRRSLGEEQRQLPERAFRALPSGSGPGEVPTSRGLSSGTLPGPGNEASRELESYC
Method: A. In Vitro hGIP Receptor Binding Assay […] The incubations were terminated by rapid filtration through GF/C filters (pre-soaked in 0.5% polyethylenimine) using a Brandel filtration manifold. Each tube and filter were then washed three times with 5-ml aliquots of ice-cold buffer.

Compound	half-life at 0.1 mg/ml [1]	half-life at 0.1 mg/ml [2]	AUC (total insulin secretion) (insulin secretion)	Ki [3]
CC[C@H](C)[C@H](NC(=O)[C@H](CCCCN)NC(=O)[C@H](CC(=O)O)NC(=O)[C@H](CCSC)NC(=O)[C@H](C)NC(=O)[C@@H](NC(=O)C1(NC(=O)[C@H](Cc2ccc(O)cc2)NC(=O)[C@H](CC(=O)O)NC(=O)[C@H](CO)NC(=O)[C@@H](NC(=O)[C@H](Cc2ccccc2)NC(=O)[C@@H](NC(=O)CNC(=O)[C@H](CCC(=O)O)NC(=O)C(C)(C)NC(=O)[C@@H](N)Cc2ccc(O)c(OC)c2)[C@@H](C)O)[C@@H](C)CC)CCCC1)[C@@H](C)CC)C(=O)N[C@@H](Cc1c[nH]cn1)C(=O)N[C@@H](CCC(N)=O)C(=O)N[C@@H](CCC(N)=O)C(=O)N[C@@H](CC(=O)O)C(=O)N[C@@H](Cc1ccccc1)C(=O)N[C@H](C(=O)N[C@@H](CC(N)=O)C(=O)N[C@@H](Cc1c[nH]c2ccccc12)C(=O)N[C@@H](CC(C)C)C(=O)N[C@@H](CC(C)C)C(=O)N[C@@H](C)C(=O)N[C@@H](CCC(N)=O)C(=O)N[C@@H](CCCCN)C(=O)NCC(=O)N[C@@H](CCCCN)C(=O)N[C@@H](CCCCN)C(=O)N[C@@H](CC(N)=O)C(=O)N[C@@H](CC(=O)O)C(=O)N[C@@H](Cc1c[nH]c2ccccc12)C(=O)N[C@@H](CCCCN)C(=O)N[C@@H](Cc1c[nH]cn1)C(=O)N[C@@H](CC(N)=O)C(=O)N[C@H](C(=O)NC1(C(=O)N[C@@H](CCC(N)=O)C(=O)O)CCCC1)[C@@H](C)CC)C(C)C [Example 28, (3MeO-Tyr^1, Aib^2, A5c^11, 41)hGIP(1-42)-OH]	> 57 h	10 h	92.88	1240 pM
H-[Tyr(3-Cl)][Aib]EGTFISDY[Ac5c]IA[Nle]DKIHQQDFVNWLLAQKGKKNDWKHNITQ-OH [Example 14, (3Cl-Tyr^1, Aib^2, A5c^11, Nle^14)hGIP(1-42)-OH]	52.1 h	27.4 h	189.54	420 pM
